According to ChEMBL document CHEMBL1201862, “PubChem BioAssay data set” (2004):
Active and inactive are the calls of the source.

What was measured:
[1] = molecular target: T1, Polyadenylate-binding protein 1 (Homo sapiens, UniProt P11940); test: MLLE domain peptide-binding blockers, IC50 – biochemical, fluorescence polarization, FITC-PAM2 peptide, dose response (AID 602259); assay type: functional; conditions: read-out: IC50_Mean
[2] = molecular target: T1, Polyadenylate-binding protein 1; test: MLLE binding blockers, Cy5 peptide tracer – biochemical, fluorescence polarization, Cy5-PAM2 peptide, secondary, miRNA deadenylation inhibitor project, dose response (AID 602260); assay type: functional; conditions: read-out: IC50_Mean
[3] = P. falciparum Dd2 growth inhibitors, dose response, SYBR Green, cherry-picked samples (AID 1159567); assay type: functional, cell-based
[4] = viability of PTEN-deleted HCT116 cells – cell-based, HCT116 PTEN knockout, dose response (AID 1047); assay type: functional;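 also: HCT116 colon tumor cells with PTEN knocked out; cells exposed to compound for 60 hours before readout; potency for loss of cell viability measured by luminescence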
[5] = viability of HCT116 lacking mutant beta-catenin – cell-based, human colon tumor, dose response (AID 1045); assay type: functional;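 also: HCT116 colon tumor cells with beta catenin knocked out; cells exposed to compound for 60 hours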
[6] = non-specific 3'UTR reporter inhibition in Clone20-Shn3RL – cell-based, Renilla luciferase, cherry-picked, counter-screen for Shn3 inhibitor project, dose response (AID 624133); assay type: functional
Vero = test: cells; assay type: functional; conditions: Chlorocebus sabaeus
[7] = viability of uninfected HEp-2 cells – cell-based, HTS, cytotoxicity control for RSV inhibitor project, dose response (AID 2410); assay type: functional; conditions: human respiratory syncytial virus
[8] = loss of viability in HepG2 cells – cell-based, CellTiter-Glo, cherry-picked, cytotoxicity control for Shn3 inhibitor project, dose response (AID 624134); assay type: functional
[9] = reduction of Shn3 3'UTR-driven luciferase in osteoblasts – cell-based, Clone20 osteoblasts, firefly luciferase, cherry-picked, dose response (AID 624132); assay type: functional;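 also: firefly luciferase luminescence from reporter carrying the Shn3 3'UTR in osteoblasts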
[10] = molecular target: Induced myeloid leukemia cell differentiation protein Mcl-1 (Homo sapiens, UniProt Q07820); assay type: functional
Induced myeloid leukemia cell differentiation protein Mcl-1, sequence (Q07820 whole entry): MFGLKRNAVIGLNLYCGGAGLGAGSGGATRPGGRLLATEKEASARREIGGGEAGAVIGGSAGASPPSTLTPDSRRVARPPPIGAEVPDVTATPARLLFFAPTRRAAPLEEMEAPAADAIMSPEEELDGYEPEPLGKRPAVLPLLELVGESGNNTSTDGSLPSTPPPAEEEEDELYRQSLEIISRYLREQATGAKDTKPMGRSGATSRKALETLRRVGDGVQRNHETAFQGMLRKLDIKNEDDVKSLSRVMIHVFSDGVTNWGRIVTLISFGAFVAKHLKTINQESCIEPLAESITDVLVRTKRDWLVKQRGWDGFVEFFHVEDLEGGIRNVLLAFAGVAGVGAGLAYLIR

[11] = NIH3T3 cell viability loss – ATP luminescence, mouse fibroblasts, counter-screen, dose response (AID 2010); assay type: functional, cell-based;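 also: cells exposed to compound for about 90 hours before reading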
[12] = Trypanosoma cruzi growth suppression in host cells – NIH3T3 host cells, beta-gal luminescence, confirmation (AID 2044); assay type: functional, cell-based;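 also: intracellular parasites grown in NIH/3T3 mouse fibroblasts as host cells; luminescent beta-galactosidase reporter signal from transgenic T. cruzi replicating inside host cells; inhibitors lower the luminescence signal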

T1 sequence (P11940 whole entry, the tested form may be a part): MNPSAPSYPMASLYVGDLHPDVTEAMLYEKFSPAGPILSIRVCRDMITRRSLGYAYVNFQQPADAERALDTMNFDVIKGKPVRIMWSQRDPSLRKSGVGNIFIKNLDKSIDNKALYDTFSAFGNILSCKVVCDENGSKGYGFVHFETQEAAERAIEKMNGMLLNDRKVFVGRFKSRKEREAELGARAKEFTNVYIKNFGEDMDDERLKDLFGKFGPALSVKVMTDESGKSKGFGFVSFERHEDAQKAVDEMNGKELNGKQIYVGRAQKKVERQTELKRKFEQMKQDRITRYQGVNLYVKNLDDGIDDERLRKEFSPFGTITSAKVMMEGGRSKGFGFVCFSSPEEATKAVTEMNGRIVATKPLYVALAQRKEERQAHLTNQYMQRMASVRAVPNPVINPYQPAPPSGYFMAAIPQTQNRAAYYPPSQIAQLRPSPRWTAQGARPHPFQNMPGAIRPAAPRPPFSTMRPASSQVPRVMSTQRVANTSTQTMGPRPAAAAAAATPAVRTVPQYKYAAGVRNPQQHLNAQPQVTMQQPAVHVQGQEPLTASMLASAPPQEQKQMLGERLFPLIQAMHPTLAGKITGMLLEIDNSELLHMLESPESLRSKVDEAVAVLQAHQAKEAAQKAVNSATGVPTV

| Structure (SMILES) | IC50 [1] | IC50 [2] | EC50 [4] | EC50 [5] | further results |
| --- | --- | --- | --- | --- | --- |
| COc1ccc(C(=S)N2CCN(c3ccccc3Cl)CC2)cc1OC | > 66 µM (inactive) | > 66 µM (inactive) |  |  |  |
| CCCCCCC1NC(C(=O)O)CS1 (stereo not drawn) | > 66 µM (inactive) | > 66 µM (inactive) |  |  |  |
| CCC(=O)N1CC2(C1)CN(Cc1ccc(Cl)cc1)[C@@H](CO)c1[nH]c3cc(OC)ccc3c12 |  |  |  |  | AC50 [3]: 7.24 µM (active) |
| Cc1ccc2nc(N3CC(=O)Nc4ccccc43)nc(-c3ccccc3)c2c1 |  |  | 11.5 µM (active) | 10.4 µM (active) |  |
| COC(=O)c1ccc(/C=C/C(=O)c2ccc(OC)c(OC)c2)cc1 |  |  | 8.4 µM (active) | 7.25 µM (active) |  |
| COc1cc(-c2cc(C(=O)Nc3c(Cl)cc(Cl)cc3Cl)c3ccccc3n2)cc(OC)c1OC |  |  | 26 µM (active) | 44.6 µM (active) |  |
| N#C[C@H]1[C@H](c2ccc(C#CC3CCCCC3)cc2)[C@@H](CO)N1S(=O)(=O)c1ccccc1 |  |  |  |  | AC50 [3]: 3.24 µM (active) |
| Cc1nc2[nH]c(=S)[nH]c(=O)c2nc1C | > 66 µM (inactive) | > 66 µM (inactive) |  |  |  |
| C=CCC1(C#N)C(=S)N=C2CC(C)(C)CC(O)=C2C1c1ccc(Br)cc1 (stereo not drawn) |  |  | 14.6 µM (active) | 14.9 µM (active) |  |
| COc1ccc(-c2ccc([C@@H]3[C@H]4CNC[C@@H]3N4C(=O)Nc3ccc(C(F)(F)F)cc3)cc2)cc1 |  |  |  |  | AC50 [3]: 15 µM (active) |
| Cn1c(/C=C/c2ccc(Cl)cc2Cl)c([N+](=O)[O-])c(=O)n(C)c1=O |  |  |  |  | AC50 [6]: 8.75 µM (active); CC50 (Vero): 20.5 µM (active); CC50 [7]: 37.5 µM (active); AC50 [8]: 64.4 µM (active); AC50 [9]: 6.87 µM (active) |
| O=C(NC1CCCCC1)c1nc[nH]c1C(=O)Nc1ccc([N+](=O)[O-])cc1 |  |  | 8.84 µM (active) | 8.87 µM (active) |  |
| COc1cc(/C=C(/NC(C)=O)C(=O)O)cc(Cl)c1OCc1ccc(Br)cc1 |  |  |  |  | IC50 [10]: 3.47 µM (not active) |
| O=C(CCCN1C(=O)CCC1=O)Nc1ccccc1F | > 66 µM (inactive) | > 66 µM (inactive) |  |  |  |
| Cc1ccc2c(c1)c1nnc(S)nc1n2CCc1ccccc1 | > 66 µM (inactive) | > 66 µM (inactive) |  |  | EC50 [11]: > 60 µM (not active); EC50 [12]: 2.1 µM (active) |
| Cc1nnc(O)c2c(NC(=O)CSc3c(Cl)cccc3Cl)oc(C)c12 | > 66 µM (inactive) | > 66 µM (inactive) |  |  |  |
